What was measured:
[1] = test system: leukemic cells; details: in vitro, small number of patients; cited from earlier work
[2] = test system: pre-leukemia, or myelodysplastic syndromes(MDS); details: in vitro; cited from earlier work
[3] = Plasma ascorbate level in mice given sodium ascorbate or L-gulono-γ-lactone (HPLC-ECD); details: 5 mmole/kg, intraperitoneal
Protocol: Time-dependent changes of plasma ascorbate level in mice given sodium ascorbate (-o-) and L-gulono-γ-lactone (-•-). Drugs were dissolved in distilled water and administered by intraperitoneal injections, both at 5 mmole/kg. Blood was taken from each animal time-sequentially for the assay of plasma ascorbate with HPLC-ECD, as described in MATERIALS AND METHODS. Zero time control animals were given 0.2 ml of normal saline. Data represent Mean±SD (n=3−5).
Specific pathogen-free female BALB/c mice (body weight, ca. 25 g) were used in the present study. Animals were obtained from Dae-Han Laboratory Animal Center (Daejeon, Korea) and cared for according to the ILAR guidelines in the animal care facility of Samsung Biomedical Research Center (Seoul, Korea). They were fed a diet from Jell Laboratory Chow (Seoul, Korea). Feed and water were offered ad libitum.
The animal was anesthetized with diethyl ether vapour and blood was obtained by choroidal venous plexus. About one ml of blood was collected into a microcentrifuge tube that contained 50 μl of 130 mM sodium citrate as an anticoagulant. […] The ascorbate content in the supernatant was measured directly by HPLC method. An aliquot of the sample was treated with 100 mM dithiothreitol at neutral pH to reduce dehydroascorbate to ascorbate, and then total ascorbate content was measured. […]

| Structure (SMILES) | fraction of patients whose leukemic cell growth was modulated by LAA [1] | share of MDS showing growth enhancement with LAA [2] | share of MDS showing growth suppression with LAA [2] | return of accumulated plasma ascorbate to normal levels [3] |
| --- | --- | --- | --- | --- |
| O=C1O[C@H]([C@@H](O)CO)C(O)=C1O [LAA, L-ascorbic acid] | approximately ½ | 30% | 16% | – |
| O=C1O[C@H]([C@@H](O)CO)C([O-])=C1O.[Na+] [ascorbate, Sodium ascorbate] | – | – | – | rapidly diminished to normal levels within a few hours |
